{"source": "patent US11597739B2", "about": "“Enhancing CD8+ T cells for adoptive T cell therapy by inhibiting PTPN1 (PTP1B) and PTPN2 (TC-PTP)” (The Royal Institution for the Advancement of …, priority 2017, dated 2023)", "system": "OVA expressing EG.7 lymphoma target cells", "assay": "Calcein-release cytotoxicity assay of OT-1 CTLs", "assay_type": "cell-based, mouse", "details": "OT-1 CD8 cells activated with inhibitor at 50 μM; 5 hours; every effector to target ratio; versus untreated, K882 or K885", "procedure": "9) Cytotoxicity Experiments\n3 days before the experiment thaw a new vial of EG.7 cells. After 24 h in culture, the cells are resuspended at 5×10^4 and 100 U/ml of IFN-γ is added. The day of the experiment, the EG.7 cells are harvested, washed once with HBSS. The EG.7 cells are resuspended at 10^6/ml in HBSS and 10 μM Calcein-AM added. The cells are incubated at 37° C. for 1 hr in the dark, washed twice with complete RPMI and counted. They are then resuspend at 3×10^5/ml.\nThe following wells from a 0.75×10^6/ml suspension of the CD8 (Effector) cells to have different effector to target ratios are prepared in duplicate. Before plating the effector cells, RPMI complete is added, 50 μl to the 5:1 ratio wells and 90 μl to the 1:1 ratio wells. • 75×10^3 (100 μl) 25:1 ratio. • Dilute the suspension 1:2.5 volumes: • 30×10^3 (100 μl) 10:1 ratio. • 15×10^3 (50 μl) 5:1 ratio. • 3×10^3 (10 μl) 1:1 ratio. • Prepare at least 2 wells with 100 μl of RPMI complete.\n100 μl of EG.7 (Target) cells is added and spin at 400×g for 2 minutes, RT. […]\nFor Controls: Background fluorescence (BF): Harvest 100 μl supernatant from control wells. Absolut fluorescence (AF): Add 100 μl of methanol to the control wells harvested for background. […]\nCalculate the specific cell lysis as follows: Specific cell lysis=((Sample−BF)/(AF−BF))×100 10) Flow Cytometry 1. […] Record cell quantity transfers per tube; • b. […]", "data": [{"compound": "CCOC(=O)c1cc2cc(C(F)(F)P(=O)(O)O)c(Br)cc2s1", "note": "[Ex. 1, ((6-BROMO-2-(ETHOXYCARBONYL)BENZO[B]THIOPHEN-5-YL)DIFLUOROMETHYL)PHOSPHONATE]", "values": [{"measurement": "specific cytotoxicity (lysis of EG.7 cells)", "result": "lysed EG.7 cells with greater efficiency"}]}]}
